Data as given in the NIST ThermoML archive (doi:10.1016/j.tca.2016.04.001).
± gives the expanded uncertainty stated by the source.

Test: xn = mol fraction of the nth substance listed
Conditions: 87 kPa, Liquid, Vibrating tube method

CC(=O)OC(C)(C)C [1,1-dimethylethyl ethanoate] + OC(CCl)CCl
x2 = 0
Conditions | mass density [kg/m3]
293.15 K | 866.95 ± 1
298.15 K | 861.41 ± 1
303.15 K | 855.79 ± 1
308.15 K | 850.17 ± 1
313.15 K | 844.49 ± 1

CC(=O)OC(C)(C)C [1,1-dimethylethyl ethanoate] + OCc1ccccc1
mass density [kg/m3]
Conditions | 293.15 K | 298.15 K | 303.15 K | 308.15 K | 313.15 K
x2 = 0 | 866.95 ± 1 | 861.41 ± 1 | 855.79 ± 1 | 850.17 ± 1 | 844.49 ± 1
x2 = 0.047 | 874.64 ± 1.4 | 869.18 ± 1.4 | 863.68 ± 1.4 | 858.15 ± 1.4 | 852.61 ± 1.5
x2 = 0.0925 | 882.2 ± 1.4 | 876.83 ± 1.4 | 871.43 ± 1.4 | 865.99 ± 1.5 | 860.52 ± 1.5
x2 = 0.2017 | 900.32 ± 1.4 | 895.16 ± 1.4 | 889.77 ± 1.4 | 884.75 ± 1.5 | 879.5 ± 1.5
x2 = 0.3001 | 916.98 ± 1.4 | 912 ± 1.5 | 906.99 ± 1.5 | 901.96 ± 1.5 | 896.9 ± 1.5
x2 = 0.4 | 934.1 ± 1.5 | 929.3 ± 1.5 | 924.47 ± 1.5 | 919.62 ± 1.5 | 914.74 ± 1.5
x2 = 0.4999 | 951.7 ± 1.5 | 947.08 ± 1.5 | 942.4 ± 1.5 | 937.73 ± 1.5 | 933.04 ± 1.5
x2 = 0.6002 | 969.63 ± 1.5 | 965.17 ± 1.5 | 960.68 ± 1.5 | 956.18 ± 1.5 | 951.66 ± 1.5
x2 = 0.7027 | 988.3 ± 1.5 | 984.07 ± 1.5 | 979.75 ± 1.5 | 975.42 ± 1.5 | 971.06 ± 1.5
x2 = 0.7996 | 1006.55 ± 1.5 | 1002.4 ± 1.5 | 998.24 ± 1.5 | 994.06 ± 1.6 | 989.87 ± 1.6
x2 = 0.9059 | 1026.81 ± 1.5 | 1022.83 ± 1.6 | 1018.83 ± 1.6 | 1014.82 ± 1.6 | 1010.79 ± 1.6
x2 = 0.9528 | 1035.96 ± 1.6 | 1032.06 ± 1.6 | 1028.11 ± 1.6 | 1024.17 ± 1.6 | 1020.21 ± 1.6

OC(CCl)CCl [1,3-dichloro-2-propanol] + C=COC(C)=O
mass density [kg/m3]
Conditions | 293.15 K | 298.15 K | 303.15 K | 308.15 K | 313.15 K
x1 = 0.0481 | 954.28 ± 2.9 | 947.93 ± 2.9 | 941.53 ± 2.9 | 935.07 ± 2.9 | 928.57 ± 2.9
x1 = 0.1022 | 978.78 ± 2.9 | 972.47 ± 2.9 | 966.08 ± 2.9 | 959.68 ± 2.9 | 953.24 ± 2.9
x1 = 0.2021 | 1023.42 ± 2.9 | 1017.18 ± 2.9 | 1010.91 ± 2.9 | 1004.52 ± 2.9 | 998.25 ± 2.9
x1 = 0.2995 | 1066.61 ± 2.8 | 1060.46 ± 2.9 | 1054.25 ± 2.9 | 1048 ± 2.9 | 1041.72 ± 2.9
x1 = 0.3953 | 1108.66 ± 2.8 | 1102.54 ± 2.8 | 1096.39 ± 2.8 | 1090.21 ± 2.8 | 1083.96 ± 2.8
x1 = 0.5002 | 1154.23 ± 2.8 | 1148.18 ± 2.8 | 1142.09 ± 2.8 | 1135.96 ± 2.8 | 1129.81 ± 2.8
x1 = 0.6003 | 1197.18 ± 2.8 | 1191.17 ± 2.8 | 1185.12 ± 2.8 | 1179.04 ± 2.8 | 1172.93 ± 2.8
x1 = 0.6999 | 1239.3 ± 2.7 | 1233.34 ± 2.8 | 1227.29 ± 2.8 | 1221.25 ± 2.8 | 1215.17 ± 2.8
x1 = 0.8007 | 1281.45 ± 2.7 | 1275.5 ± 2.7 | 1269.5 ± 2.7 | 1263.47 ± 2.7 | 1257.41 ± 2.7
x1 = 0.9014 | 1322.94 ± 2.7 | 1317 ± 2.7 | 1311 ± 2.7 | 1304.98 ± 2.7 | 1298.92 ± 2.7
x1 = 0.9524 | 1343.43 ± 2.7 | 1337.48 ± 2.7 | 1331.49 ± 2.7 | 1325.46 ± 2.7 | 1319.4 ± 2.7
x1 = 1 | 1362.66 ± 1.1 | 1356.74 ± 1.1 | 1350.72 ± 1.1 | 1344.71 ± 1.1 | 1338.65 ± 1.1
